Results: EP0028716B1, “Motility increasing peptides and their use” (HOECHST AKTIENGESELLSCHAFT, priority 1979, dated 1986)

Legend:
[1] = tested on: Motorik des Magen-Darmtrakts und der ableitenden Harnwege; assay: Stimulation of the motility of the gastrointestinal tract and the efferent urinary tract; type: in vivo, Hund; details: parent compound compared with analogues varied in positions A-D
Protocol: Die erfindungsgemässen Peptide stimulieren die Motorik des Magen-Darmtrakts und der ableitenden Harnwege beim Hund und beim Menschen. Sie steigern den Ruhetonus und die segmentale Kontraktionsaktivität des Darmes und fördern dadurch sekundär auch die Wasserresorption aus dem Darmlumen (lleum).
Die erfindungsgemässen Peptide wirken intravenös bereits in einer Dosierung von 10 ng/kg und können unbedenklich auch in höherer Dosierung angewandt werden. […] Das parasympathomimetisch wirkende Carbaminoylcholin benötigt für die gleiche Wirkung etwa eine 10 fache Dosierung. So zählen die erfindungsgemässen Peptide zu den stärksten Effektoren der Motorik des Magen-Darmtrakts und der ableitenden Harnwege. Ihre morphinähnliche Wirkung ist zwar bekannt, doch überschreiten bei der geringen erforderlichen Dosierung weder nach intravenöser, subcutaner noch intranasaler Anwendung die wirksamen Dosen die Blut-Hirn-Schranke. Sie üben deshalb in der für den erfindungsgemässen Zweck erforderlichen Menge keine Wirkungen im Zentralnervensystem aus.

[2] = tested on: Motorik des Magen-Darmtrakts und der ableitenden Harnwege; assay: as above; type: in vivo, Hund; details: dose needed relative to the peptides of the invention

Row | Molecule | Wirkung (motility stimulation, in words) [1] | höhere Dosierung für ähnliche / gleiche Wirkung [2]
1 | Enkephalin | sehr schwach wirksamen | 
2 | C[N+](C)(C)CCOC(N)=O [Carbaminoylcholin] |  | ~10 fach
